From patent US20110306597A1, “Nicotinamide Derivatives” (priority 2008, published 2011)

The compounds below were run against human recombinant H-PGDS (Homo sapiens, UniProt O60760) (assay: Fluorescence Intensity h-PGDS TBA Enzyme Assay). Settings: 1:175,000 human recombinant H-PGDS, highest inhibitor concentration typically 1 μM.
human recombinant H-PGDS, sequence (O60760 whole entry): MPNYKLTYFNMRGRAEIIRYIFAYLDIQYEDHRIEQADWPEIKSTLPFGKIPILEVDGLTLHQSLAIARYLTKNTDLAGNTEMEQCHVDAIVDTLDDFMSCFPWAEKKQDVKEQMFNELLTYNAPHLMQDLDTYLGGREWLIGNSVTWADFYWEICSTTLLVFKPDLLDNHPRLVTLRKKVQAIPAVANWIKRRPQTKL
Format: biochemical
Outline: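 Readout is PGH2 depletion: after a 42 s reaction with 5.0 μM PGH2 and 2.5 mM glutathione (pH 8.0 Tris, 10 min inhibitor preincubation), Fe(II) converts leftover PGH2 to MDA, which forms a fluorescent TBA complex. IC50s come from 11-point, 3-fold duplicate curves, 4-parameter fit.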
An IC50 of 0.906 nM was found for `CCn1c(CCNC(=O)c2ccc(-c3ccccc3)nc2)nc2cc(C(=O)NCCOC)ccc21` [Example 391, 1-Ethyl-N-(2-methoxyethyl)-2-(2-{[(6-phenylpyridin-3-yl)carbonyl]amino}ethyl)-1H-benzimidazole-5-carboxamide] in this work.
An IC50 of 1.12 nM was found for `Cc1cccc(NC(=O)c2ccc(-c3ccccc3)nc2)c1` [Example 392, N-(3-Methylphenyl)-6-phenylnicotinamide] in this work.
An IC50 of 1.96 nM was found for `CCOC(=O)C(CNC(=O)c1ccc(-c2ccccc2)nc1)C1CCCC1` (stereo not drawn) [Example 393, Ethyl 2-cyclopentyl-3-{[(6-phenylpyridin-3-yl)carbonyl]amino}propanoate] in this work.
An IC50 of 24.4 nM was found for `CCOC(=O)CC(NC(=O)c1ccc(-c2ccccc2)nc1)c1ccccc1` (stereo not drawn) [Example 394, Ethyl 3-phenyl-3-{[(6-phenylpyridin-3-yl)carbonyl]amino}propanoate] in this work.
An IC50 of 4.1 nM was found for `O=C(NCCCNc1ccccn1)c1ccc(-c2ccccc2)nc1` [Example 395, 6-Phenyl-N-[3-(pyridin-2-ylamino)propyl]nicotinamide] in this work.
An IC50 of 3 nM was found for `CCOC(=O)CC[C@H](NC(=O)c1ccc(-c2ccccc2)nc1)C(=O)OCC` [Example 396, Diethyl N-[(6-phenylpyridin-3-yl)carbonyl]-L-glutamate] in this work.
An IC50 of 18.8 nM was found for `CNS(=O)(=O)c1ccc(CNC(=O)c2ccc(-c3ccccc3)nc2)cc1` [Example 397, N-{4-[(Methylamino)sulfonyl]benzyl}-6-phenylnicotinamide] in this work.
An IC50 of 3.3 nM was found for `Cc1cc(Br)ccc1NC(=O)c1ccc(-c2ccccc2)nc1` [Example 398, N-(4-Bromo-2-methylphenyl)-6-phenylnicotinamide] in this work.
An IC50 of 27.6 nM was found for `O=C(NCC1CCCCO1)c1ccc(-c2ccccc2)nc1` (stereo not drawn) [Example 399, 6-Phenyl-N-(tetrahydro-2H-pyran-2-ylmethyl) nicotinamide] in this work.
An IC50 of 86.1 nM was found for `COc1ccc(C(CNC(=O)c2ccc(-c3ccccc3)nc2)N2CCOCC2)cc1` (stereo not drawn) [Example 400, N-[2-(4-Methoxyphenyl)-2-morpholin-4-ylethyl]-6-phenylnicotinamide] in this work.
An IC50 of 31.1 nM was found for `CCOC(=O)CC(NC(=O)c1ccc(-c2ccccc2)nc1)c1ccc(Cl)cc1` (stereo not drawn) [Example 401, Ethyl 3-(4-chlorophenyl)-3-{[(6-phenylpyridin-3-yl)carbonyl]amino}propanoate] in this work.
An IC50 of 8 nM was found for `O=C(Nc1cccn(Cc2ccccc2)c1=O)c1ccc(-c2ccccc2)nc1` [Example 402, N-(1-Benzyl-2-oxo-1,2-dihydropyridin-3-yl)-6-phenylnicotinamide] in this work.
An IC50 of 238 nM was found for `COC(=O)[C@H](Cc1ccc(Cl)cc1)NC(=O)c1ccc(-c2cccc(F)c2)nc1` [Example 403, Methyl 4-chloro-N-{[6-(3-fluorophenyl)pyridin-3-yl]carbonyl}phenylalaninate] in this work.
An IC50 of 17.4 nM was found for `Cc1ccc(CNC(=O)c2ccc(-c3cccc(F)c3)nc2)cc1` [Example 404, 6-(3-Fluorophenyl)-N-(4-methylbenzyl)nicotinamide] in this work.
An IC50 of 211 nM was found for `O=C(NCc1cccc(F)c1)c1ccc(-c2cccc(F)c2)nc1` [Example 405, N-(3-Fluorobenzyl)-6-(3-fluorophenyl)nicotinamide] in this work.
An IC50 of 101 nM was found for `CCOC(=O)CC(NC(=O)c1ccc(-c2cccc(F)c2)nc1)c1ccccc1` (stereo not drawn) [Example 406, Ethyl 3-({[6-(3-fluorophenyl)pyridin-3-yl]carbonyl}amino)-3-phenylpropanoate] in this work.
An IC50 of 149 nM was found for `CCOC(=O)CC(NC(=O)c1ccc(-c2cccc(F)c2)nc1)c1ccc(Cl)cc1` (stereo not drawn) [Example 407, Ethyl 3-(4-chlorophenyl)-3-({[6-(3-fluorophenyl)pyridin-3-yl]carbonyl}amino)propanoate] in this work.
An IC50 of 103 nM was found for `O=C(NCc1ccc(Br)cc1)c1ccc(-c2cccc(F)c2)nc1` [Example 408, N-(4-Bromobenzyl)-6-(3-fluorophenyl)nicotinamide] in this work.
An IC50 of 233 nM was found for `O=C(NCc1ccc(C(F)(F)F)cc1)c1ccc(-c2cccc(F)c2)nc1` [Example 409, 6-(3-Fluorophenyl)-N-[4-(trifluoromethyl)benzyl] nicotinamide] in this work.
An IC50 of 39.8 nM was found for `O=C(NCc1ccc(Cl)cc1)c1ccc(-c2cccc(F)c2)nc1` [Example 410, N-(4-Chlorobenzyl)-6-(3-fluorophenyl)nicotinamide] in this work.
An IC50 of 127 nM was found for `CCOC(=O)CC(NC(=O)c1ccc(-c2cccc(F)c2)nc1)c1ccccc1Cl` (stereo not drawn) [Example 411, Ethyl 3-(2-chlorophenyl)-3-({[6-(3-fluorophenyl)pyridin-3-yl]carbonyl}amino)propanoate] in this work.
An IC50 of 46.8 nM was found for `CSc1ccc(CNC(=O)c2ccc(-c3cccc(F)c3)nc2)cc1` [Example 412, 6-(3-Fluorophenyl)-N-[4-(methylthio)benzyl] nicotinamide] in this work.
An IC50 of 92.9 nM was found for `NS(=O)(=O)c1ccc(CNC(=O)c2ccc(-c3cccc(F)c3)nc2)cc1` [Example 413, N-[4-(Aminosulfonyl)benzyl]-6-(3-fluorophenyl)nicotinamide] in this work.
An IC50 of 35.3 nM was found for `COc1ccc(CNC(=O)c2ccc(-c3cccc(F)c3)nc2)cc1` [Example 414, 6-(3-Fluorophenyl)-N-(4-methoxybenzyl)nicotinamide] in this work.
An IC50 of 24.5 nM was found for `CCCCNC(=O)c1ccc(-c2cccc(F)c2)nc1` [Example 415, N-Butyl-6-(3-fluorophenyl)nicotinamide] in this work.
An IC50 of 44.8 nM was found for `COC(=O)c1ccc(CNC(=O)c2ccc(-c3cccc(F)c3)nc2)cc1` [Example 416, Methyl 4-[({[6-(3-fluorophenyl)pyridin-3-yl]carbonyl}amino)methyl] benzoate] in this work.
An IC50 of 40.1 nM was found for `CC(C)(CNC(=O)c1ccc(-c2cccc(F)c2)nc1)N1CCOCC1` [Example 417, 6-(3-Fluorophenyl)-N-(2-methyl-2-morpholin-4-ylpropyl)nicotinamide] in this work.
An IC50 of 96.1 nM was found for `O=C(CNC(=O)c1ccc(-c2cccc(F)c2)nc1)OCc1ccccc1` [Example 418, Benzyl N-{[6-(3-fluorophenyl)pyridin-3-yl]carbonyl}glycinate] in this work.
An IC50 of 3.94 nM was found for `O=C(Nc1cccnc1)c1ccc(-c2cccc(F)c2)nc1` [Example 419, 6-(3-Fluorophenyl)-N-pyridin-3-ylnicotinamide] in this work.
An IC50 of 34.1 nM was found for `CS(=O)(=O)c1ccc(CNC(=O)c2ccc(-c3cccc(F)c3)nc2)cc1` [Example 420, 6-(3-Fluorophenyl)-N-[4-(methylsulfonyl)benzyl] nicotinamide] in this work.
An IC50 of 7.37 nM was found for `O=C(Nc1ccccc1)c1ccc(-c2cccc(F)c2)nc1` [Example 421, 6-(3-Fluorophenyl)-N-phenylnicotinamide] in this work.
An IC50 of 159 nM was found for `O=C(NCCN1CCCC1)c1ccc(-c2cccc(F)c2)nc1` [Example 422, 6-(3-Fluorophenyl)-N-(2-pyrrolidin-1-ylethyl)nicotinamide] in this work.
An IC50 of 8.76 nM was found for `CC(NC(=O)c1ccc(-c2cccc(F)c2)nc1)c1ccccc1` (stereo not drawn) [Example 423, 6-(3-Fluorophenyl)-N-(1-phenylethyl)nicotinamide] in this work.
An IC50 of 67.8 nM was found for `CNS(=O)(=O)c1ccc(CNC(=O)c2ccc(-c3cccc(F)c3)nc2)cc1` [Example 424, 6-(3-Fluorophenyl)-N-{4-[(methylamino)sulfonyl]benzyl}nicotinamide] in this work.
An IC50 of 111 nM was found for `CCC(C)NC(=O)c1ccc(-c2cccc(F)c2)nc1` (stereo not drawn) [Example 426, N-sec-Butyl-6-(3-fluorophenyl)nicotinamide] in this work.
An IC50 of 43.8 nM was found for `CCCCCNC(=O)c1ccc(-c2cccc(F)c2)nc1` [Example 427, 6-(3-Fluorophenyl)-N-pentylnicotinamide] in this work.
An IC50 of 40.9 nM was found for `O=C(NCc1ccco1)c1ccc(-c2cccc(F)c2)nc1` [Example 428, 6-(3-Fluorophenyl)-N-(2-furylmethyl)nicotinamide] in this work.
An IC50 of 21.8 nM was found for `O=C(NCCNc1ccccc1)c1ccc(-c2cccc(F)c2)nc1` [Example 429, N-(2-Anilinoethyl)-6-(3-fluorophenyl)nicotinamide] in this work.
An IC50 of 11.7 nM was found for `O=C(NCCc1cccs1)c1ccc(-c2cccc(F)c2)nc1` [Example 430, 6-(3-Fluorophenyl)-N-[2-(2-thienyl)ethyl]nicotinamide] in this work.
An IC50 of 59 nM was found for `O=C(NC1CCN(Cc2ccc(Cl)cc2)C1=O)c1ccc(-c2cccc(F)c2)nc1` (stereo not drawn) [Example 431, N-[1-(4-Chlorobenzyl)-2-oxopyrrolidin-3-yl]-6-(3-fluorophenyl)nicotinamide] in this work.
An IC50 of 14.9 nM was found for `O=C(NCc1ccccc1)c1ccc(-c2cccc(F)c2)nc1` [Example 432, N-Benzyl-6-(3-fluorophenyl)nicotinamide] in this work.
An IC50 of 33.7 nM was found for `C[C@@H](CNC(=O)c1ccc(-c2cccc(F)c2)nc1)NC(=O)OCc1ccccc1` [Example 433, Benzyl [(1S)-2-({[6-(3-fluorophenyl)pyridin-3-yl]carbonyl}amino)-1-methylethyl]carbamate] in this work.
An IC50 of 101 nM was found for `COc1ccc(OCCNC(=O)c2ccc(-c3cccc(F)c3)nc2)cc1` [Example 434, 6-(3-Fluorophenyl)-N-[2-(4-methoxyphenoxy)ethyl] nicotinamide] in this work.
An IC50 of 6.12 nM was found for `COc1cccc([C@H](C)NC(=O)c2ccc(-c3cccc(F)c3)nc2)c1` [Example 436, 6-(3-Fluorophenyl)-N-[(1S)-1-(3-methoxyphenyl)ethyl] nicotinamide] in this work.
An IC50 of 54.3 nM was found for `C[C@H](CNC(=O)c1ccc(-c2cccc(F)c2)nc1)NC(=O)OCc1ccccc1` [Example 437, Benzyl [(1R)-2-({[6-(3-fluorophenyl)pyridin-3-yl]carbonyl}amino)-1-methylethyl]carbamate] in this work.
An IC50 of 20 nM was found for `COc1ccccc1-c1nnc(CNC(=O)c2ccc(-c3cccc(F)c3)nc2)o1` [Example 439, 6-(3-Fluorophenyl)-N-{[5-(2-methoxyphenyl)-1,3,4-oxadiazol-2-yl]methyl}nicotinamide] in this work.
An IC50 of 14.4 nM was found for `O=C(NCCSCCO)c1ccc(-c2cccc(F)c2)nc1` [Example 440, 6-(3-Fluorophenyl)-N-{2-[(2-hydroxyethyl)thio]ethyl} nicotinamide] in this work.
An IC50 of 45.2 nM was found for `COc1ccc2nc(CNC(=O)c3ccc(-c4cccc(F)c4)nc3)[nH]c2c1` [Example 441, 6-(3-Fluorophenyl)-N-[(6-methoxy-1H-benzimidazol-2-yl)methyl]nicotinamide] in this work.
